Measured values: patent US9808434B2, “Compound for treating cancer and diabetes” (CITY OF HOPE, priority 2011, dated 2017)
Entries after “also recorded” stand apart in the source; their conditions may differ.

Assays:
Hs600T = assay: MTT assay, Hs600T; format: cell-based; conditions: Homo sapiens
Description: Cell density measurements were performed using a hemocytometer to count reproductive cells resistant to staining with trypan blue. Approximately 20,000 cells were plated into each well of 96-well flat-bottomed micro-titer plates. After 12 h or 24 h incubation at 37° C., medium containing either COH-SR4 (ranging 0-200 μM) or elesclomol (ranging 0-20 μM) were added to the cells. After 24 h, 48 h or 96 h incubation, 20 μL of 5 mg/mL MTT were introduced to each well and incubated for 2 h. The plates were centrifuged and medium was decanted. Cells were subsequently dissolved in 100 μl DMSO with gentle shaking for 2 h at room temperature, followed by measurement of OD570 (91).
Cells of highly aggressive mouse melanoma cell line B16-F0 or human melanoma cell line Hs600T were incubated with various doses of COH-SR4 (1, 2.5, 5, 10, 25, 50, or 100 μM). The cell viabilities after treatment of 48 hours and 96 hours were measured and summarized in FIGS. 54A and 55A, respectively. […] Data were presented as mean±Standard Deviation from two separate determinations with eight replicate each (n=16).

AMPK = AMPK activation in 3T3-L1 cells, Western blot; format: cell-based, mouse; conditions: 1 hour
Description: Activation of AMPK was associated with the phosphorylation of the α-subunit on Thr-172 of as assessed using phospho-specific antibodies (FIGS. 10A-B). AMPK activation also leads to the increased phosphorylation of the target protein acetyl-CoA carboxylase (ACC) (FIG. 10B).
Cells of each cell lines (Hela, HL-60, and 3T3-L1) were treated for 1 hour with a test compound (COH-SR4, COH-SR9, COH-SR16, or COH-SR18) at a concentration of 1 μM, 3 μM, or 5 μM, or AICAR (5-aminoimidazole-4-carboxamideriboside, an AMPK agonist used as positive control) at a concentration of 500 μM, or none of the above (the untreated cells as negative control). Total cell lysates from the untreated cells and the cells treated with a test compound or AICAR were analyzed by Western blot assay using specific antibodies against phospho-AMPK, phospho-ACC, total AMPK and total ACC.

SK-Mel-5 = assay: Colony formation assay, SK-Mel-5; format: cell-based, human; conditions: 5 μM
Description: (§1) Cell survival was evaluated using a standard colony-forming assay. In total, 1×10^5 cells/mL were incubated with COH-SR4 (1.5 μM or 5 μM) or elesclomol (5 μM) for 24 h, and aliquots of 50 or 100 μL were added to 60 mm size petri dishes, containing 4 mL culture medium. After 7 or 10 days, adherent colonies were fixed, stained with 0.5% methylene blue for 30 min and colonies were counted using the Innotech Alpha Imager HP (91).

A2058 cells = assay: Annexin V / propidium iodide flow cytometry, A2058; format: cell-based, human
Description: Apoptosis of cells were measured based on loss of membrane integrity using Annexin V-FITC Apoptosis Detection Kit as described by the supplier (BD Biosciences Pharmingen, San Diego, Calif.), in which the early- and late-death cells were stained with Annexin V-FITC and propidium iodide. Cells were analyzed using a CyAn ADP cytometer (Beckman Coulter Inc) to quantify fluorescence. Apoptotic cells were defined as Annexin V-FITC positive.

3T3-L1 cells = assay: Adipocyte differentiation, Oil Red O staining; format: cell-based, mouse; conditions: preadipocytes 7 days in differentiating media (DM) + compound
Description: Two-day post-confluent 3T3-L1 preadipocyte cells were allowed to differentiate for 7 days in the presence of nothing, DM only, DM+ a test compound (COH-SR1, COH-SR2, COH-SR3, COH-SR4, COH-SR7, LR23 or LR59), or DM+ a positive control (TSA, C75, or Apicidin).
3T3-L1 preadipocytes cells were treated with differentiating media (DM) with COH-SR4 (1 μM, 3 μM, or 5 μM) or without for 7 days. […] As used in FIG. 9C, U=undifferentiated, D=differentiated with cocktail media.

H520 = assay: Colony formation assay, H520; format: cell-based, human; conditions: 1.5 μM
Description: as §1
The effect of COH-SR4 was first examined in a NCI panel of cancer cell lines, the results of which indicated good activity of COH-SR4 towards lung cancer (FIG. 78A). […] Values are presented as mean±SD from two separate determinations with eight replicates each (n=16) (FIG. 78B). The COH-SR4 treatment exerted a significant inhibitory effect on the survival of lung cancer cells [IC50: H1417 cells-1.2±0.2 μM, H1618 cells-1.5±0.2 μM, H358 cells-2.1±0.2 μM and H520 cells-2.4±0.3 μM]. […] Following initial screening for the anticancer activity of COH-SR4, the effect of COH-SR4 on clonogenic potential was studied. Standard colony-forming assay was performed and the colonies were counted using Innotech Alpha Imager HP. […] The effect of COH-SR4 on induction of apoptosis was further investigated. […] TUNEL assay was performed using Promega fluorescence detection kit and examined using Zeiss LSM 510 META laser-scanning fluorescence microscope with filters 520 and 620 nm. […]

[1] = tested on: A2058, A101D and SK-Mel-28 melanoma cells; assay: Mitochondrial ROS, MitoSox Red; format: cell-based, human; conditions: 5 μM, 1 h
Description: Briefly, cells (4×10^5 well) were seeded in a 6-well plate and incubated overnight. Twenty-four hours after plating, cells were treated with test compounds as indicated in each experiment. After washing with pre-warmed PBS, cells were incubated with fresh medium containing 5 μM MitoSox Red for 15 min at 37° C. The fluorescence intensity was measured at of 530ex/590em using flow cytometry (Cyan ADP). The cells only sample (no MitoSox dye added) was used as the background. Approximately 30,000 counts were made for each sample. Experiments were repeated for three times and at least duplicate samples were included in each experiment.
Mitochondrial ROS was measured by MitoSox Red according to the manufacturer's instructions (Molecular Probes, CA). The intensity of fluorescence was quantified by digital analysis of images obtained from confocal microscopy using Image Pro Premiere software (Media Cybernetics Inc., Bethesda, Md.) (A2058, FIG. 74A) or by flow cytometry (FIG. 74B). Cells were treated with either 5 μM of COH-SR4, rotenone (mitochondrial complex 1 inhibitor) or elesclomol for 1 h. *Results represent fold increase of ROS generation over control and are expressed as mean±SD from three independent experiments.

Q: Which results are given for `O=C(Nc1cc(Cl)cc(Cl)c1)Nc1cc(Cl)cc(Cl)c1` [COH-SR4, 1,3-bis(3,5-dichlorophenyl) urea]?
A: IC50 (Hs600T; 48 h): ~10 µM; IC50 (Hs600T; 96 h): ~6 µM; AMPK activation (AMPK): activated AMPK; colony formation (SK-Mel-5): 22±8%; apoptosis (annexin V / propidium iodide) (A2058 cells): caused apoptosis in A2058 cells in a dose-dependent manner; differentiation and accumulation of lipid droplets (Oil Red O staining) (3T3-L1 cells): dose-dependently inhibited differentiation and accumulation of lipid droplets; also recorded: prevented accumulation of fat droplets; colony formation (H520): 54±5%; mitochondrial ROS production (MitoSox Red) [1]: induced ROS production
